This is an account of results in ChEMBL document CHEMBL3804802, “Novel sulfonamide bearing coumarin scaffolds as selective inhibitors of tumor associated carbonic anhydrase isoforms IX and XII” (Bioorg Med Chem, 2016).

The assay addresses Carbonic anhydrase 9 (Homo sapiens, UniProt Q16790). As to the kind of experiment: Inhibition of human carbonic anhydrase 9 using saturated CO2 as substrate incubated for 10 mins prior to testing by stopped-flow CO2 hydrase assay.

One may read the Ki as a measure of affinity in units of concentration, obtained from inhibition or displacement. Read a low Ki as tighter binding. Molecule `NS(=O)(=O)c1ccc(-n2cc(/C=N\Nc3nc(-c4cc5cc(Br)ccc5oc4=O)cs3)c(-c3ccc(Cl)cc3)n2)cc1` had a Ki of 23.1 nM.

`Cc1ccc(-c2nn(-c3ccc(S(N)(=O)=O)cc3)cc2/C=N\Nc2nc(-c3cc4cc(Cl)ccc4oc3=O)cs2)cc1` yielded a Ki of 24.5 nM.

`NS(=O)(=O)c1ccc(Nc2nc(-c3cc4cc(Cl)ccc4oc3=O)cs2)cc1` showed a Ki of 25 nM.

Consider `NS(=O)(=O)c1ccc(-n2cc(/C=N\Nc3nc(-c4cc5cc(Br)ccc5oc4=O)cs3)c(-c3ccc(F)cc3)n2)cc1`, for which the Ki came to 26.5 nM.

In the case of `NS(=O)(=O)c1ccc2c(c1)sc1nc(-c3cc4cc(Cl)ccc4oc3=O)cn12`, the affinity corresponds to a Ki of 11.4 nM.

The molecule `NS(=O)(=O)c1ccc(Nc2nc(-c3cc4ccccc4oc3=O)cs2)cc1` came in with a Ki of 23.8 nM.

Regarding `NS(=O)(=O)c1ccc(-n2cc(/C=N\Nc3nc(-c4cc5ccccc5oc4=O)cs3)c(-c3ccc(F)cc3)n2)cc1`, the Ki is 2.28 nM.

In turn, `NS(=O)(=O)c1ccc2c(c1)sc1nc(-c3cc4ccccc4oc3=O)cn12` gave a Ki of 43.6 nM.

Consider `C/C(=N\Nc1ccc(S(N)(=O)=O)cc1)c1cc2cc(Br)ccc2oc1=O`, for which the Ki amounted to 23.6 nM.

The molecule `NS(=O)(=O)c1ccc(-n2cc(/C=N\Nc3nc(-c4cc5ccccc5oc4=O)cs3)c(-c3ccc(Cl)cc3)n2)cc1` showed a Ki of 2.32 nM.

`NS(=O)(=O)c1ccc(-n2cc(/C=N\Nc3nc(-c4cc5cc(Cl)ccc5oc4=O)cs3)c(-c3ccc(Cl)cc3)n2)cc1` showed an inhibition constant (Ki) of 28.1 nM.

Regarding `NS(=O)(=O)c1ccc2c(c1)sc1nc(-c3cc4cc(Br)ccc4oc3=O)cn12`, the affinity corresponds to a Ki of 24.9 nM.

Regarding `COc1ccc(-c2nn(-c3ccc(S(N)(=O)=O)cc3)cc2/C=N\Nc2nc(-c3cc4cc(Br)ccc4oc3=O)cs2)cc1`, the Ki is 20.1 nM.

`NS(=O)(=O)c1ccc(-n2cc(/C=N\Nc3nc(-c4cc5cc(Cl)ccc5oc4=O)cs3)c(-c3ccccc3)n2)cc1` registered a Ki of 28.3 nM.

In the case of `NS(=O)(=O)c1ccc(-n2cc(/C=N\Nc3nc(-c4cc5cc(Cl)ccc5oc4=O)cs3)c(-c3ccc(F)cc3)n2)cc1`, the Ki came to 2.54 nM.

`NS(=O)(=O)c1ccc(-n2cc(/C=N\Nc3nc(-c4cc5cc(Br)ccc5oc4=O)cs3)c(-c3ccccc3)n2)cc1` displayed a Ki of 21.6 nM.

The molecule `C/C(=N\Nc1ccc(S(N)(=O)=O)cc1)c1cc2cc(Cl)ccc2oc1=O` yielded a Ki of 2.35 nM.

With `Cc1ccc(-c2nn(-c3ccc(S(N)(=O)=O)cc3)cc2/C=N\Nc2nc(-c3cc4ccccc4oc3=O)cs2)cc1`, the affinity, expressed as Ki, was 28.6 nM.

`NS(=O)(=O)c1ccc(Nc2nc(-c3cc4cc(Br)ccc4oc3=O)cs2)cc1` showed a Ki of 23.6 nM.

Molecule `COc1ccc(-c2nn(-c3ccc(S(N)(=O)=O)cc3)cc2/C=N\Nc2nc(-c3cc4ccccc4oc3=O)cs2)cc1` yielded a Ki of 21.6 nM.

In the case of `Cc1ccc(-c2nn(-c3ccc(S(N)(=O)=O)cc3)cc2/C=N\Nc2nc(-c3cc4cc(Br)ccc4oc3=O)cs2)cc1`, the Ki came to 26 nM.

Molecule `COc1ccc(-c2nn(-c3ccc(S(N)(=O)=O)cc3)cc2/C=N\Nc2nc(-c3cc4cc(Cl)ccc4oc3=O)cs2)cc1` gave a Ki of 20.4 nM.

For the molecule `NS(=O)(=O)c1ccc(-n2cc(/C=N\Nc3nc(-c4cc5ccccc5oc4=O)cs3)c(-c3ccccc3)n2)cc1`, affinity was put at a Ki of 19.7 nM.

Turning to `C/C(=N\Nc1ccc(S(N)(=O)=O)cc1)c1cc2ccccc2oc1=O`, the affinity, expressed as Ki, was 58.6 nM.
